Holding throughout (assay type): in vitro ADME
One series has as its target T1, CYP2C9 (Homo sapiens, UniProt P11712).
T1 construct: tissue XenoTech LLC, Celsis-In Vitro Technologies, or Tissue Transformation Technologies; host or cells: pooled human liver microsomes
Put plainly: CYP inhibition in pooled human liver microsomes: CYP2C9. Here is the method:
The final concentration of each probe substrate was near the experimentally determined Km value for the indicated enzyme. Ataluren or prototypical CYP inhibitors (positive controls) was incubated (n = 3) with probe substrates and HLM in 100 mmol/L phosphate buffer (pH 7.4) in a total volume of approximately 0.25 mL, and the reactions were initiated by the addition of 1 mmol/L NADPH at 37°C. The reactions were carried out using previously established conditions to ensure linearity with respect to protein concentration and incubation time (Table S1). Incubations were stopped with the addition of ice‐cold acetonitrile. Metabolite formation in incubations with test compound and control inhibitors was assessed with LC‐MS/MS methods for each of the reaction products as described in Table S2. […] After 7 minutes incubation at 37°C, the reaction was stopped by the addition of ice‐cold acetonitrile, followed by membrane plate filtration. The filtrates were used for LC‐MS/MS analysis. Enzyme activity remaining at each nonzero ataluren concentration after incubation was normalized against control sample (zero ataluren concentration, enzyme activity = 100%), and the % remaining enzyme activity values were used for IC50 calculation. IC50 values were determined by nonlinear regression with GraphPad Prism 5 using the following four‐parameter sigmoidal‐logistic IC50 equation: Fit=background+range-background/[1+I/IC50^slope]
Where, I is the inhibitor concentration, and background was set to 0 and range to 100, as percent of control values are utilized. K i was determined by nonlinear regression with GraphPad Prism 5 using best fit model.
On the technique in general: Liver microsomes are vesicles of endoplasmic reticulum, rich in cytochrome P450 enzymes.

A further series relates to CYP2C19. Put plainly: CYP induction in primary human hepatocytes: CYP2C19. The note with it: male, 48 h. The procedure:
(§1) Human hepatocytes isolated from three Caucasian males were transferred to 48‐well collagen‐coated plates at 0.14 × 10^6 cells/well in planting media for attachment. After attachment, planting media was replaced with sandwich media and the cells were incubated until clusters were established. […] The incubation solutions were aspirated and replaced with freshly prepared incubation solutions containing ataluren for an additional 24 hours. […] The incubation solutions were then aspirated and 150 µL of K‐H buffer containing CYP substrates were added. […] Metabolite formation in incubations with test compounds and control inhibitors was assessed with validated LC‐MS/MS methods for each of the reaction products as described in Table S2. Enzymatic activity for each CYP was calculated using the absolute amount of metabolite formed (pmol) divided by hepatocytes in the incubation (million cells) and the incubation time (minute). The relative fold induction in enzymatic activity was calculated by comparing the rate of metabolite formation for treatment groups to that of the solvent control group (reported as vehicle control%) or positive control group (reported as positive control%).

For a further series, the system named is CYP2C8. Put plainly: CYP induction in primary human hepatocytes: CYP2C8. The note with it: male, 48 h. Here is the method:
as §1

A short description of series [1]: Plasma protein binding (ultrafiltration), dog. The note with it: male, beagle, 50 to 50 000 ng/mL, mean ± SD, n = 3, read-out: percentage protein binding (converted). The procedure: [^14C]‐Ataluren, at 50, 500, 5000, and 50 000 ng/mL or 0.175, 1.75, 17.5, and 175 µM, in male mouse, rat, dog, monkey, and human plasma, was incubated (n = 3) at 37°C for approximately 15 minutes, transferred into Centrifree® Micropartition Units (30 000 Da molecular weight cutoff, 1 mL capacity; Amicon Inc), and centrifuged at 37°C and 2000 g for approximately 10 minutes so that the amount of the sample filtered was approximately ≤ 20% of the total volume. After centrifugation, the entire ultrafiltrate was weighed and analyzed for radioactivity using liquid scintillation counting. The percent bound = (1‐Cu/Cm)×100, where Cu is the concentration of radioactivity in the ultrafiltrate and Cm is the concentration of radioactivity in the plasma before centrifugation.

Each structure is given as a SMILES string.

T1 sequence (P11712 whole entry): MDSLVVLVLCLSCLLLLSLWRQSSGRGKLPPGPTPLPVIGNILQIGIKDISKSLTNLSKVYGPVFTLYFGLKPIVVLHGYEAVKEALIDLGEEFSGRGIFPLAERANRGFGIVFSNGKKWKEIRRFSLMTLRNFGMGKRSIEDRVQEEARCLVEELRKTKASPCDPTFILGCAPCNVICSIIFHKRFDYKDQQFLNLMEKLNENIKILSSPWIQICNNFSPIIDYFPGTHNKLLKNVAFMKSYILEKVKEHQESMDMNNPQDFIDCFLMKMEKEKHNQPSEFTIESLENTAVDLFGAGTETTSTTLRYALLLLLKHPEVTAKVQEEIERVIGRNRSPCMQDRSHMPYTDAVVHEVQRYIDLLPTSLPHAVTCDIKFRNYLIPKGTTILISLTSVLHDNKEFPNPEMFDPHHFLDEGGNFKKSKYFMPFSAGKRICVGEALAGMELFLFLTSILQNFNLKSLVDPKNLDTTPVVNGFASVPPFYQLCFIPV

As for `O=C(O)c1cccc(-c2noc(-c3ccccc3F)n2)c1` [ataluren, Ataluren], affinity at CYP2C9 (CYP2C9, competitive, mean ± SE, n = 3) was put at a Ki of 75.4 ± 4.42 µM. Besides, the mechanism of inhibition entry at CYP2C9 (CYP2C9, tolbutamide methyl hydroxylase) was “competitive inhibitor”. In addition, the IC50 (in general, the concentration that inhibits the measured activity by half) was 135 µM against CYP2C9 (Diclofenac 4′-hydroxylase, pooled HLM, n=3, (95% confidence interval)) and 134 µM against CYP2C9 (human, pooled human liver microsomes, pH 7.4, CYP2C9, HLM). Further, the “Vehicle control %, Mean” value is 112% with CYP2C19 (4 µM), 99.0% with CYP2C19 (400 µM), 93.0% with CYP2C8 (4 µM) and 67.6% in the series on CYP2C8 (400 µM). Besides, the fraction unbound at 15 min in series [1] was 0.025.
